Test results from ChEMBL document CHEMBL6087472, “Development and Discovery of a Selective Degrader of Casein Kinases 1 δ/ε” (J Med Chem, 2025).
Calls of active or inactive are those of the source. The calls are words filed in the database; no cut-off is given here.

Tests used:
[1] = molecular target: T1, von Hippel-Lindau disease tumor suppressor/Casein kinase I isoform delta (Homo sapiens, UniProt P48730+P40337); assay: PROTAC activity at VHL/HiBit fused CK1 delta in human MV4-11 cells assessed as fold change at 10 uM measured after 6 hrs in presence of 1 uM of MU1742 by Nano-Glo HiBit assay; assay type: cell-based
HEK293 [2] = assay: Effect on DVL3 phosphorylation in human HEK293 cells at 1 uM measured after 6 hrs by Western blot analysis; assay type: functional, cell-based
[3] = molecular target: T2, von Hippel-Lindau disease tumor suppressor/Casein kinase I isoform epsilon (Homo sapiens) (UniProt P49674+P40337); assay: PROTAC activity at VHL/CK1 epsilon in human MDA-MB-231 cells assessed as induction of degradation of CK1 epsilon at 1 uM measured after 6 hrs; assay type: cell-based
[4] = molecular target: T1, von Hippel-Lindau disease tumor suppressor/Casein kinase I isoform delta; assay: PROTAC activity at VHL/Hibit-fused CK1 delta in human MV4-11 cells assessed as degradation of CK1 delta at 5 to 10 uM incubated for 6 hrs by Western blot analysis; assay type: cell-based; settings: dose 5-10 µM
[5] = molecular target: T2, von Hippel-Lindau disease tumor suppressor/Casein kinase I isoform epsilon (Homo sapiens); assay: PROTAC activity at VHL/CK1 epsilon in human HEK293 cells at 0.625 to 10 uM in presence of MU1742 by Western blot analysis; assay type: cell-based; settings: dose 0.625-10 µM
[6] = molecular target: T1, von Hippel-Lindau disease tumor suppressor/Casein kinase I isoform delta; assay: PROTAC activity at VHL/CK1 delta in human MDA-MB-231 cells assessed as induction of degradation of CK1 delta at 1 uM measured after 6 hrs; assay type: cell-based
[7] = molecular target: T2, von Hippel-Lindau disease tumor suppressor/Casein kinase I isoform epsilon (Homo sapiens); assay: PROTAC activity at VHL/CK1 epsilon in human HEK293 cells assessed as degradation of CK1 epsilon at 3 to 20 uM incubated overnight followed by compound washout and measured after 1 hr by Nano-Glo HiBiT assay; assay type: cell-based; settings: dose 3-20 µM
[8] = molecular target: T1, von Hippel-Lindau disease tumor suppressor/Casein kinase I isoform delta; assay: PROTAC activity at VHL/CK1 delta in HEK293 cells assessed as induction of degradation of CK1 delta at 3 uM measured after 1 hrs by Western blot analysis; assay type: cell-based
[9] = molecular target: T1, von Hippel-Lindau disease tumor suppressor/Casein kinase I isoform delta; assay: PROTAC activity at VHL/CK1 delta in HEK293 cells assessed as induction of degradation of CK1 delta at 3 uM measured after 6 hrs by Western blot analysis relative to control; assay type: cell-based
[10] = molecular target: T1, von Hippel-Lindau disease tumor suppressor/Casein kinase I isoform delta; assay: PROTAC activity at VHL/HiBit fused CK1 delta in human MV4-11 cells assessed as fold change at 2.5 uM measured after 6 hrs in presence of 10 uM of MU1742 by Nano-Glo HiBit assay; assay type: cell-based
[11] = molecular target: T2, von Hippel-Lindau disease tumor suppressor/Casein kinase I isoform epsilon (Homo sapiens); assay: PROTAC activity at VHL/CK1 epsilon in HEK293 cells assessed as induction of degradation of CK1 epsilon at 0.3 to 1.0 uM measured after 6 hrs by Western blot analysis relative to control; assay type: cell-based; settings: dose 0.3-1 µM
[12] = molecular target: T2, von Hippel-Lindau disease tumor suppressor/Casein kinase I isoform epsilon (Homo sapiens); assay: PROTAC activity at VHL/Hibit-fused CK1 epsilon in human MV4-11 cells assessed as degradation of CK1 epsilon at 5 to 10 uM incubated for 6 hrs by Western blot analysis; assay type: cell-based; settings: dose 5-10 µM
[13] = molecular target: Casein kinase I isoform delta (Homo sapiens) (UniProt P48730); assay: Binding affinity to […] in human HEK293 cells assessed as target engagement at >3 uM; assay type: cell-based
[14] = molecular target: T3, von Hippel-Lindau disease tumor suppressor/Casein kinase I isoform alpha (Homo sapiens) (UniProt P48729+P40337); assay: PROTAC activity at VHL/CK1 alpha in human MV4-11 cells assessed as induction of degradation of CK1 alpha by measuring maximum efficacy at 10 uM measured after 12 hrs by HiBit assay relative to control; assay type: cell-based
[15] = molecular target: T1, von Hippel-Lindau disease tumor suppressor/Casein kinase I isoform delta; assay: PROTAC activity at VHL/CK1 delta in HEK293 cells assessed as induction of degradation of CK1 delta at 0.3 to 1.0 uM measured after 6 hrs by Western blot analysis relative to control; assay type: cell-based; settings: dose 0.3-1 µM
[16] = molecular target: T2, von Hippel-Lindau disease tumor suppressor/Casein kinase I isoform epsilon (Homo sapiens); assay: PROTAC activity at VHL/CK1 epsilon in human U87 cells assessed as induction of degradation of CK1 epsilon by measuring maximum efficacy at 1 uM measured after 6 hrs relative to control; assay type: cell-based
[17] = molecular target: T1, von Hippel-Lindau disease tumor suppressor/Casein kinase I isoform delta; assay: PROTAC activity at VHL/HiBit fused CK1 delta in human MV4-11 cells assessed as fold change at 2.5 uM measured after 6 hrs in presence of 1 uM of MU1742 by Nano-Glo HiBit assay; assay type: cell-based
MV4-11 = assay: Cytotoxicity in human MV4-11 cells at >10 uM measured after 72 hrs by alamar blue assay; assay type: functional, cell-based
[18] = molecular target: T3, von Hippel-Lindau disease tumor suppressor/Casein kinase I isoform alpha (Homo sapiens); assay: PROTAC activity at VHL/CK1 alpha in human MDA-MB-231 cells assessed as induction of degradation of CK1 alpha at 1 uM measured after 6 hrs; assay type: cell-based
[19] = molecular target: T1, von Hippel-Lindau disease tumor suppressor/Casein kinase I isoform delta; assay: PROTAC activity at VHL/HiBit fused CK1 delta in human MV4-11 cells assessed as fold change at 2.5 uM measured after 6 hrs by Nano-Glo HiBit assay; assay type: cell-based
[20] = molecular target: T1, von Hippel-Lindau disease tumor suppressor/Casein kinase I isoform delta; assay: PROTAC activity at VHL/CK1 delta in human MV4-11 cells assessed as degradation of CK1-delta at 5 to 10 uM incubated for 6 hrs by Western blot analysis; assay type: cell-based; settings: dose 5-10 µM
[21] = molecular target: T1, von Hippel-Lindau disease tumor suppressor/Casein kinase I isoform delta; assay: PROTAC activity at VHL/CK1 delta in human U87 cells assessed as induction of degradation of CK1 delta by measuring maximum efficacy at 1 uM measured after 6 hrs relative to control; assay type: cell-based
[22] = molecular target: T1, von Hippel-Lindau disease tumor suppressor/Casein kinase I isoform delta; assay: PROTAC activity at VHL/CK1 delta in HEK293 cells assessed as induction of degradation of CK1 delta at upto 20 uM pretreated with LGK974 followed by compound addition and measured after 6 hrs by Western blot analysis; assay type: cell-based
[23] = molecular target: T1, von Hippel-Lindau disease tumor suppressor/Casein kinase I isoform delta; assay: PROTAC activity at VHL/CK1 delta in HEK293 cells assessed as induction of degradation of CK1 delta measured after 6 hrs by Western blot analysis; assay type: cell-based; settings: dose 0.01-30 µM
[24] = molecular target: T1, von Hippel-Lindau disease tumor suppressor/Casein kinase I isoform delta; assay: PROTAC activity at VHL/CK1 delta in human HEK293 cells at 0.625 to 10 uM in presence of MU1742 by Western blot analysis; assay type: cell-based; settings: dose 0.625-10 µM
[25] = molecular target: T3, von Hippel-Lindau disease tumor suppressor/Casein kinase I isoform alpha (Homo sapiens); assay: PROTAC activity at VHL/CK1 alpha (unknown origin) endogenously expressed in HEK293 cells assessed as degradation of CK1-alpha at 10 to 30 uM incubated for 6 hrs by Western blot analysis; assay type: cell-based; settings: dose 10-30 µM
[26] = molecular target: T1, von Hippel-Lindau disease tumor suppressor/Casein kinase I isoform delta; assay: PROTAC activity at VHL/CK1 delta in human U87 cells assessed as induction of degradation of CK1 delta at 1 uM measured after 6 hrs; assay type: cell-based
HEK293 [27] = assay: Effect on VANGL2 phosphorylation in human HEK293 cells at 1 uM measured after 6 hrs by Western blot analysis; assay type: functional, cell-based
[28] = molecular target: T1, von Hippel-Lindau disease tumor suppressor/Casein kinase I isoform delta; assay: PROTAC activity at VHL/Hibit-fused CK1 delta in human MV4-11 cells assessed as degradation of CK1-delta incubated for 6 hrs by Nano-Glo HiBiT assay relative to control; assay type: cell-based
[29] = molecular target: T2, von Hippel-Lindau disease tumor suppressor/Casein kinase I isoform epsilon (Homo sapiens); assay: PROTAC activity at VHL/CK1 epsilon in human U87 cells assessed as induction of degradation of CK1 epsilon at 1 uM measured after 6 hrs; assay type: cell-based
[30] = molecular target: T1, von Hippel-Lindau disease tumor suppressor/Casein kinase I isoform delta; assay: PROTAC activity at VHL/HiBit fused CK1 delta in human MV4-11 cells assessed as fold change at 10 uM measured after 6 hrs in presence of 10 uM of MU1742 by Nano-Glo HiBit assay; assay type: cell-based

T2 sequence (P40337 whole entry, looked up, the tested form may be a part, canonical isoform): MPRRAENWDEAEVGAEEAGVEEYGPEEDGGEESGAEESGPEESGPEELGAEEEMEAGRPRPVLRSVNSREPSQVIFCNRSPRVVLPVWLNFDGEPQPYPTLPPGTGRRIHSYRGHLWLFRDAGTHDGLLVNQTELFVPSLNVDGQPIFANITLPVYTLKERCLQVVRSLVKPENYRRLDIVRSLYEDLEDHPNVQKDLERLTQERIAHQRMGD
T2 sequence (P49674 whole entry, looked up, the tested form may be a part, canonical isoform): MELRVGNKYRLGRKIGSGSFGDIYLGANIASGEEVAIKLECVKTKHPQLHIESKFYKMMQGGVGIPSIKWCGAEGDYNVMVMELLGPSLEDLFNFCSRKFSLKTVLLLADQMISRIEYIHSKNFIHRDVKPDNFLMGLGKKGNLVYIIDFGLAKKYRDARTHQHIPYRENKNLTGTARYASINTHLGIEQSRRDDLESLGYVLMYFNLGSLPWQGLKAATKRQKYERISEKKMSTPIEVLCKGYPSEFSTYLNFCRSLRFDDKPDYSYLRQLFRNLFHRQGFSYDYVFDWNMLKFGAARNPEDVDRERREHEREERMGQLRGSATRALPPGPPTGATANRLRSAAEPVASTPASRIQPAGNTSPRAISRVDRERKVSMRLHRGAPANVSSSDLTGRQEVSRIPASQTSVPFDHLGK
T1 sequence (P40337 whole entry, looked up, the tested form may be a part, canonical isoform): as the sequence (P40337 whole entry, looked up, the tested form may be a part, canonical isoform) above
T1 sequence (P48730 whole entry, looked up, the tested form may be a part, canonical isoform): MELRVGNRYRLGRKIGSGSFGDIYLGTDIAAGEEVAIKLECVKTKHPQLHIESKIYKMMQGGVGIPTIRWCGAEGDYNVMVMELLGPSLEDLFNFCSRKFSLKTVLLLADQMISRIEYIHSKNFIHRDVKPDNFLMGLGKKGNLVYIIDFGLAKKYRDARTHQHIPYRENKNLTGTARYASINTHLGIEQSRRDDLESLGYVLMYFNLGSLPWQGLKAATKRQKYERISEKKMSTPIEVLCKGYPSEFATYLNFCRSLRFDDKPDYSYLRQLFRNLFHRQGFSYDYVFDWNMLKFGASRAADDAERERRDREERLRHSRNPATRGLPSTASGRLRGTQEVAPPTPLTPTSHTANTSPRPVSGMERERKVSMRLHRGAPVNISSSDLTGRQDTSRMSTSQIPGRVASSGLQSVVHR
T3 sequence (P40337 whole entry, looked up, canonical isoform): as the sequence (P40337 whole entry, looked up, the tested form may be a part, canonical isoform) above
T3 sequence (P48729 whole entry, looked up, canonical isoform): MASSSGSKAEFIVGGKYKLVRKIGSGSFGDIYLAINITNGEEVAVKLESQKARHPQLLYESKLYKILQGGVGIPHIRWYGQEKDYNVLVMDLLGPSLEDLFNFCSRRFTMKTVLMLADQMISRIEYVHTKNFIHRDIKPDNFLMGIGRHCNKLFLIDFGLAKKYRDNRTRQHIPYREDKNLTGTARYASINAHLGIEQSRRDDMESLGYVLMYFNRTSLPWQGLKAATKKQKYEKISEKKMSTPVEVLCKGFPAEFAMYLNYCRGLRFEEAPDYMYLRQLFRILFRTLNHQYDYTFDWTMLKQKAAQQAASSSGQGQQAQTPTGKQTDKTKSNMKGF
Chain of Casein kinase I isoform delta (Homo sapiens) (P48730 whole entry, looked up, canonical isoform): as the sequence (P48730 whole entry, looked up, the tested form may be a part, canonical isoform) above

fold change (FC) [1]: 0.67
Activity [3]: Active
Activity [4]: Active
Activity [5]: inactive
Activity [6]: Active
Activity [7]: inactive
Activity [8]: Active
Activity [9]: 100%
fold change (FC) [10]: 1.19
Activity [11]: 100%
Activity [12]: Active
Activity [13]: Active
Emax [14]: 50%
Activity [15]: 100%
Emax [16]: > 50%
fold change (FC) [17]: 0.97
Activity [18]: inactive
fold change (FC) [19]: 0.33
Activity [20]: Active
Emax [21]: > 50%
Activity [22]: Active
Activity [23]: Dose-dependent-effect
Activity [24]: inactive
Activity [25]: Active
Activity [26]: Active
Emax [28]: 70.1%
Activity [29]: Active
fold change (FC) [30]: 1.02
Structure (SMILES): Cc1ncsc1-c1ccc(CNC(=O)[C@H]2C[C@H](O)CN2C(=O)[C@H](NC(=O)CCCCCCC(=O)N2CCC(F)(Cn3cnc(-c4ccc(F)cn4)c3-c3ccnc4[nH]ccc34)CC2)C(C)(C)C)cc1
Activity (HEK293 [2]): Active
Activity (MV4-11): Active
Activity (HEK293 [27]): Active
